The source of these data is patent publication US20130224164A1, “Environmental Clostridial Bacteriotherapy and Related Formulations and Methods of Manufacture and Use” (VIROPHARMA INCORPORATED, priority 2010, published 2013).

The series concerns healthy subjects ≧60 years of age. Description: Adverse events during oral vancomycin pre-treatment period of the Phase 1 study. The format is in vivo, human. As to the method: VP20621 (10^4, 10^6, or 10^8 spores) or placebo were administered as a single dose to subjects age 18-45 (Group 1) or ≧60 years of age (Group 2). In Group 3, an oral suspension of 10^8 spores or placebo was administered twice daily for five days to patients≧60 years in age. In Group 4, subjects≧60 years of age received 5 days of oral vancomycin followed by 14 days of once daily VP20621 (10^4, 10^6, or 10^8 spores) or placebo. All subjects were followed through day 28. C. difficile stool cultures were performed at various time points. C. difficile isolates were tested for the production of toxin by enzyme immunoassay.
Purified VP 20621 (spores of a non-toxigenic strain of C. difficile) were produced in a liquid culture medium free of animal-derived components. VP 20621 was administered as an oral liquid suspension. The potency of the drug is based on the viable count of the spores.
Forty-three (43) subjects were pre treated with vancomycin to ensure that a sufficient number of subjects would be available for randomization to achieve the planned target sample size of 36. Twelve (28%) of the 43 subjects had adverse events during the vancomycin pre treatment period (Table 1).

The mark [1] stands for this setting: vancomycin pre-treatment, N = 43.

Take `CN[C@H](CC(C)C)C(=O)N[C@H]1C(=O)N[C@@H](CC(N)=O)C(=O)N[C@H]2C(=O)N[C@H]3C(=O)N[C@H](C(=O)N[C@H](C(=O)O)c4cc(O)cc(O)c4-c4cc3ccc4O)[C@H](O)c3ccc(c(Cl)c3)Oc3cc2cc(c3O[C@@H]2O[C@H](CO)[C@@H](O)[C@H](O)[C@H]2O[C@H]2C[C@](C)(N)[C@H](O)[C@H](C)O2)Oc2ccc(cc2Cl)[C@H]1O` [Vancomycin, vancomycin]: the “Subjects with a gastrointestinal adverse effect” value (Group 4, during pre-treatment with vancomycin) is reported as 16%. Moreover, the “Subjects with mild diarrhea or loose/watery stools” value (Group 4, during pre-treatment with vancomycin (3/43)) is listed as 7%. For the same molecule, the “Subjects with adverse events” value (vancomycin pre treatment period, twelve of 43 subjects) is 28%. Under setting [1], the “Gastrointestinal AEs: Abdominal distention” value was 1 (2%), the “Gastrointestinal AEs: Abdominal pain” value is 2 (5%), the “Gastrointestinal AEs: Flatulence” value is given as 1 (2%) and the “Gastrointestinal AEs: Gingival bleeding” value is recorded as 1 (2%). Further, under setting [1], the “Gastrointestinal AEs: Oral paresthesia” value was 1 (2%), the “Gastrointestinal AEs: Toothache” value is listed as 1 (2%), the “Gastrointestinal AEs: Vomiting” value was 1 (2%) and the “Other AEs: Dizziness” value is recorded as 2 (5%). Besides, under setting [1], the “Other AEs: Dry skin” value was 1 (2%), the “Other AEs: Malaise” value is 1 (2%), the “Other AEs: Pruritis” value was 1 (2%) and the “Other AEs: Rash” value is reported as 1 (2%). Further, the “Gastrointestinal AEs: Diarrhea” value (vancomycin pre-treatment, oral 125 mg QID Days −5 to −1, N = 43) is given as 3 (7%).
